In patent publication US9492472B2, “Compositions and methods of treating cancer” (Case Western Reserve University, priority 2009, dated 2016):
Peptide text beside a SMILES is read from it.

How the values were obtained:
[1] = Cell penetrating capacity of the pentapeptide; assay type: cell-based; conditions: cells incubated with the peptide >1 hr (n.s.)
[2] = reported earlier; cited from earlier work

Compound | toxicity (A7 cells) | entry into cells without Ca2+ [1] | cell penetrating capacity [2]
CC[C@H](C)[C@H](NC(=O)[C@H](CC(C)C)NC(=O)[C@H](Cc1ccccc1)NC(=O)[C@H](CO)NC(=O)[C@@H](NC(=O)[C@H](CC(C)C)NC(=O)[C@H](CC(C)C)NC(=O)[C@@H](NC(=O)[C@@H](NC(=O)[C@@H]1CCCN1C(=O)[C@@H]1CCCN1C(=O)[C@H](CCCCN)NC(=O)[C@@H]1CCCN1C(=O)[C@H](CCCNC(=N)N)NC(=O)[C@H](CCCCN)NC(=O)[C@@H](N)CCCCN)C(C)C)[C@@H](C)CC)[C@@H](C)CC)C(=O)N[C@@H](Cc1ccccc1)C(=O)N[C@@H](CC(C)C)C(=O)N[C@H](C(=O)N[C@H](C(=O)NCC(=O)O)C(C)C)[C@@H](C)CC [KKRPK-PrP-GPI-PSS] (H-KKRPKPPVILLISFLIFLIVG-OH) | not toxic | – | –
KKRPK (listed as Homo sapiens) [cell penetrating pentapeptide, transport moiety] | – | can enter the cells | has cell penetrating capacity
